Assay results published in US20100298141A1, “SUBSTITUTED PYRIDINE N-OXIDE HERBICIDES” (E. I. DU PONT DE NEMOURS AND COMPANY, priority 2007, published 2010).

How the values were obtained:
soybean = assay: Test C pre-/postemergence test; type: in vivo, Glycine max
Method in brief: (§1)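 Compounds in a non-phytotoxic solvent with surfactant applied preemergence to seeded pots and, at the same time, postemergence to plants 2–18 cm tall (1- to 4-leaf stage). Paddy tests: pots flooded to 3 cm, compound applied into the water, depth held throughout.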

Italian ryegrass = assay: Test C pre-/postemergence test; type: in vivo, Lolium multiflorum; conditions: for Plant response rating (0 to 100), Ryegrass, Italian / Plant response rating, Ryegrass, Italian: Postemergence; for Plant response rating, Ryegrass, Italian: scale 0 to 100, 0 no effect, 100 complete control
Method in brief: as §1

green foxtail = assay: Test C pre-/postemergence test; type: in vivo, Setaria viridis
Method in brief: as §1

velvetleaf = assay: Test A pre-/postemergence greenhouse test; type: in vivo, Abutilon theophrasti; conditions: for Plant response rating, Velvetleaf: 0 to 100 scale where 0 is no effect and 100 is complete control; for Velvetleaf plant response rating: 0 to 100 scale
Method in brief: (§2)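 Greenhouse herbicide screen, pre- and postemergence in parallel. Soil: loam plus sand. Formulation: non-phytotoxic solvent mix with surfactant. Postemergence stage: one to two leaves, 2–10 cm height. Evaluation: visual injury, compared with untreated controls, about 10 days after treatment.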

pigweed = assay: Test C pre-/postemergence test; type: in vivo, Amaranthus retroflexus
Method in brief: as §1

corn [1] = assay: Test A pre-/postemergence greenhouse test; type: in vivo, Zea mays; conditions: for Plant response rating, Corn: 0 to 100 scale where 0 is no effect and 100 is complete control; for Corn plant response rating: 0 to 100 scale
Method in brief: as §2

umbrella sedge = assay: Test C flooded paddy test; type: in vivo, Cyperus difformis; conditions: Flood
Method in brief: (§3)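 Pots were flooded to 3 cm above the soil surface at treatment, compound applied directly to the paddy water, and that depth held throughout. Plants were kept in a greenhouse for 13 to 15 days, then visually rated against untreated controls.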

barnyardgrass [2] = assay: Test A pre-/postemergence greenhouse test; type: in vivo, Echinochloa crus-galli; conditions: for Plant response rating, Barnyardgrass: 0 to 100 scale where 0 is no effect and 100 is complete control; for Barnyardgrass plant response rating: 0 to 100 scale
Method in brief: as §2

johnsongrass = assay: Test C pre-/postemergence test; type: in vivo, Sorghum halepense
Method in brief: as §1

bermudagrass = assay: Test C pre-/postemergence test; type: in vivo, Cynodon dactylon
Method in brief: as §1

crabgrass [3] = assay: Test A pre-/postemergence greenhouse test; type: in vivo, Digitaria sanguinalis; conditions: for Plant response rating, Crabgrass, Large: 0 to 100 scale where 0 is no effect and 100 is complete control; for Crabgrass, Large plant response rating: 0 to 100 scale
Method in brief: as §2

crabgrass [4] = assay: Test C pre-/postemergence test; type: in vivo, Digitaria sanguinalis
Method in brief: as §1

barnyardgrass [5] = assay: Test C flooded paddy test; type: in vivo, Echinochloa crus-galli; conditions: Flood
Method in brief: as §3

duck salad = assay: Test C flooded paddy test; type: in vivo, Heteranthera limosa; conditions: Flood
Method in brief: as §3

corn [6] = assay: Test C pre-/postemergence test; type: in vivo, Zea mays
Method in brief: as §1

Goosegrass = assay: Test C pre-/postemergence test; type: in vivo, Eleusin indica
Method in brief: as §1

yellow nutsedge = assay: Test C pre-/postemergence test; type: in vivo, Cyperus esculentus
Method in brief: as §1

[7] = 62 g ai/ha, Preemergence, scale 0 to 100
[8] = 125 g ai/ha, preemergence, scale 0 (no effect) to 100 (complete control)
[9] = Postemergence, 125 g ai/ha, scale 0 to 100, 0 no effect, 100 complete control
[10] = Postemergence, 250 g ai/ha, scale 0 to 100, 0 no effect, 100 complete control
[11] = Preemergence, 31 g ai/ha, scale 0 to 100 (0 no effect, 100 complete control)
[12] = preemergence, 250 g ai/ha, scale 0 (no effect) to 100 (complete control)
[13] = Postemergence, 62 g ai/ha, scale 0 to 100, 0 no effect, 100 complete control
[14] = Postemergence, 500 g ai/ha, 0 is no effect, 100 is complete control
[15] = Preemergence, 125 g ai/ha, 0 no effect, 100 complete control
[16] = 62 g ai/ha, scale 0 to 100 (0 no effect, 100 complete control)
[17] = 250 g ai/ha, scale 0 to 100, 0 no effect, 100 complete control, 13 to 15 days

CCn1nc(C(F)(F)F)c(CS(=O)(=O)c2cc(C)cc[n+]2[O-])c1OCC(F)(F)F [Compound 64]
Soybean plant response rating (soybean; [7]): 20 | Soybean plant response rating (soybean; [8]): 70 | Plant response rating (0 to 100), Soybean (soybean; Postemergence, 31 g ai/ha): 25 | Plant response rating (0 to 100), Soybean (soybean; Postemergence, 62 g ai/ha): 25 | Plant response rating, Soybean (soybean; [9]): 30 | Plant response rating, Soybean (soybean; [10]): 35 | Plant response rating, Soybean (soybean; [11]): 0 | Soybean plant response rating (soybean; [12]): 80 | Ryegrass, Italian plant response rating (Italian ryegrass; [7]): 50 | Ryegrass, Italian plant response rating (Italian ryegrass; [8]): 90 | Plant response rating (0 to 100), Ryegrass, Italian (Italian ryegrass; 31 g ai/ha): 0 | Plant response rating (0 to 100), Ryegrass, Italian (Italian ryegrass; 62 g ai/ha): 0 | Plant response rating, Ryegrass, Italian (Italian ryegrass; 125 g ai/ha): 30 | Plant response rating, Ryegrass, Italian (Italian ryegrass; 250 g ai/ha): 45 | Ryegrass, Italian plant response rating (Italian ryegrass; [12]): 100 | Foxtail, Green plant response rating (green foxtail; [7]): 100 | Foxtail, Green plant response rating (green foxtail; [8]): 100 | Plant response rating (0 to 100), Foxtail, Green (green foxtail; Postemergence, 31 g ai/ha): 0 | Plant response rating, Foxtail, Green (green foxtail; [13]): 0 | Plant response rating, Foxtail, Green (green foxtail; [9]): 50 | Plant response rating, Foxtail, Green (green foxtail; [10]): 80 | Plant response rating, Foxtail, Green (green foxtail; [11]): 75 | Foxtail, Green plant response rating (green foxtail; [12]): 100 | Plant response rating, Velvetleaf (velvetleaf; Postemergence, 125 g ai/ha): 60 | Velvetleaf plant response rating (velvetleaf; [14]): 70 | Velvetleaf plant response rating (velvetleaf; [15]): 50 | Plant response rating, Velvetleaf (velvetleaf; Preemergence, 500 g ai/ha): 100 | Pigweed plant response rating (pigweed; [7]): 95 | Pigweed plant response rating (pigweed; [8]): 100 | Plant response rating (0 to 100), Pigweed (pigweed; Postemergence, 31 g ai/ha): 0 | Plant response rating (0 to 100), Pigweed (pigweed; Postemergence, 62 g ai/ha): 0 | Plant response rating, Pigweed (pigweed; [9]): 0 | Plant response rating, Pigweed (pigweed; [10]): 5 | Plant response rating, Pigweed (pigweed; [11]): 95 | Pigweed plant response rating (pigweed; [12]): 100 | Plant response rating, Corn (corn [1]; Postemergence, 125 g ai/ha): 40 | Corn plant response rating (corn [1]; [14]): 50 | Corn plant response rating (corn [1]; [15]): 0 | Plant response rating, Corn (corn [1]; Preemergence, 500 g ai/ha): 60 | Plant response rating, Sedge, Umbrella (umbrella sedge; [16]): 80 | Plant response rating, Sedge, Umbrella (umbrella sedge; [17]): 100 | Plant response rating, Barnyardgrass (barnyardgrass [2]; Postemergence, 125 g ai/ha): 90 | Barnyardgrass plant response rating (barnyardgrass [2]; [14]): 90 | Barnyardgrass plant response rating (barnyardgrass [2]; [15]): 70 | Plant response rating, Barnyardgrass (barnyardgrass [2]; Preemergence, 500 g ai/ha): 100 | Johnsongrass plant response rating (johnsongrass; [7]): 98 | Johnsongrass plant response rating (johnsongrass; [8]): 100 | Plant response rating (0 to 100), Johnsongrass (johnsongrass; Postemergence, 31 g ai/ha): 0 | Plant response rating, Johnsongrass (johnsongrass; [13]): 0 | Plant response rating, Johnsongrass (johnsongrass; [9]): 0 | Plant response rating, Johnsongrass (johnsongrass; [10]): 0 | Plant response rating, Johnsongrass (johnsongrass; [11]): 55 | Johnsongrass plant response rating (johnsongrass; [12]): 100 | Bermudagrass plant response rating (bermudagrass; 62 g ai/ha, Preemergence, scale 0 to 100 (0 no effect, 100 complete control)): 100 | Bermudagrass plant response rating (bermudagrass; [8]): 100 | Plant response rating (0 to 100), Bermudagrass (bermudagrass; Postemergence, 31 g ai/ha): 0 | Plant response rating, Bermudagrass (bermudagrass; [13]): 0 | Plant response rating, Bermudagrass (bermudagrass; [9]): 0 | Plant response rating, Bermudagrass (bermudagrass; [10]): 40 | Plant response rating, Bermudagrass (bermudagrass; [11]): 100 | Bermudagrass plant response rating (bermudagrass; [12]): 100 | Plant response rating, Crabgrass, Large (crabgrass [3]; Postemergence, 125 g ai/ha): 80 | Crabgrass, Large plant response rating (crabgrass [3]; [14]): 90 | Crabgrass, Large plant response rating (crabgrass [3]; [15]): 80 | Plant response rating, Crabgrass, Large (crabgrass [3]; Preemergence, 500 g ai/ha): 100 | Crabgrass, Large plant response rating (crabgrass [4]; [7]): 100 | Crabgrass, Large plant response rating (crabgrass [4]; [8]): 100 | Plant response rating (0 to 100), Crabgrass, Large (crabgrass [4]; Postemergence, 31 g ai/ha): 0 | Plant response rating, Crabgrass, Large (crabgrass [4]; [13]): 0 | Plant response rating, Crabgrass, Large (crabgrass [4]; [9]): 0 | Plant response rating, Crabgrass, Large (crabgrass [4]; [10]): 20 | Plant response rating, Crabgrass, Large (crabgrass [4]; [11]): 98 | Crabgrass, Large plant response rating (crabgrass [4]; [12]): 100 | Plant response rating, Barnyardgrass (barnyardgrass [5]; [16]): 0 | Plant response rating, Barnyardgrass (barnyardgrass [5]; [17]): 20 | Plant response rating, Ducksalad (duck salad; [16]): 20 | Plant response rating, Ducksalad (duck salad; [17]): 75 | Corn plant response rating (corn [6]; [7]): 95 | Corn plant response rating (corn [6]; [8]): 95 | Plant response rating (0 to 100), Corn (corn [6]; Postemergence, 31 g ai/ha): 0 | Plant response rating, Corn (corn [6]; [13]): 0 | Plant response rating, Corn (corn [6]; [9]): 0 | Plant response rating, Corn (corn [6]; [10]): 0 | Plant response rating, Corn (corn [6]; [11]): 0 | Corn plant response rating (corn [6]; [12]): 95 | Goosegrass plant response rating (Goosegrass; [7]): 100 | Goosegrass plant response rating (Goosegrass; [8]): 100 | Plant response rating (0 to 100), Goosegrass (Goosegrass; Postemergence, 31 g ai/ha): 0 | Plant response rating, Goosegrass (Goosegrass; [13]): 0 | Plant response rating, Goosegrass (Goosegrass; [9]): 0 | Plant response rating, Goosegrass (Goosegrass; [10]): 55 | Plant response rating, Goosegrass (Goosegrass; [11]): 95 | Goosegrass plant response rating (Goosegrass; [12]): 100 | Nutsedge, Yellow plant response rating (yellow nutsedge; [7]): 98 | Nutsedge, Yellow plant response rating (yellow nutsedge; [8]): 98 | Plant response rating (0 to 100), Nutsedge, Yellow (yellow nutsedge; Postemergence, 31 g ai/ha): 0 | Plant response rating, Nutsedge, Yellow (yellow nutsedge; [13]): 0 | Plant response rating, Nutsedge, Yellow (yellow nutsedge; [9]): 0 | Plant response rating, Nutsedge, Yellow (yellow nutsedge; [10]): 0 | Plant response rating, Nutsedge, Yellow (yellow nutsedge; [11]): 0 | Nutsedge, Yellow plant response rating (yellow nutsedge; [12]): 98
